Structures can show the parent of a compound that is named as a salt.
Key:
[1] = target: T1, Falcipain-3 (Plasmodium falciparum, UniProt Q8IIL0); test: falcipain-3 enzymatic assay (fluorogenic substrate H-D-VLR-AFC, endpoint); type: biochemical; settings: parasitic recombinant enzyme, pH 5.5, quenched after 60 minutes
T1 sequence (Q8IIL0 243-492): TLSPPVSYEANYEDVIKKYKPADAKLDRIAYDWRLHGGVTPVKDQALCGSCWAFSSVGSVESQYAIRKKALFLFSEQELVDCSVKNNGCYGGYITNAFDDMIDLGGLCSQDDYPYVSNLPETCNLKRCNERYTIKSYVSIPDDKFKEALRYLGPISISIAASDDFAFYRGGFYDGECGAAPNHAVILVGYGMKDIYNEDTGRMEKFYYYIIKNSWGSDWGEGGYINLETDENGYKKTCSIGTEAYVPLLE
Protocol: (§1) 1) Determination of Falcipain-2, Falcipain-3, Vivapain-2, and Cathepsin S Proteolytic Catalytic Activity
(§2) Assays for Falcipain-2, Falcipain-3, and Vivapain-2 are carried out with parasitic recombinant enzymes. Cathepsins S is carried out with human recombinant enzymes. Standard assay conditions for the determination of kinetic constants used a fluorogenic peptide substrate, typically H-D-VLR-AFC (Falcipain-2, Falcipain-3, Vivapain-2) or KQKLR-AMC (Cathepsin S) and are determined in 100 mM sodium acetate, pH 5.5, containing 10 mM DTT and 0.5 mM CHAPS (Falcipain-2, Falcipain-3, Vivapain-2), or 50 mM MES, pH 6.5, containing 0.5 mM CHAPS, 10 mM L-CYS, 5 mM EDTA (Cathepsin S). Stock substrate solutions are prepared at 20 mM in DMSO. The activity assays contained 30 uM substrate (Falcipain-2, Falcipain-3, Vivapain-2), and 30 uM substrate (Cathepsin S). All assays contained 1% DMSO. […] All assays are conducted at ambient temperature as end point assays being quenched after 60 minutes with the exception of Cathepsin S at 90 minutes, with 16.6 uM E-64 in 1% DMSO. Product formation (AFC or AMC) is determined from fluorescence (excitation at 405 nm; emission at 530 nm, AFC, or excitation at 360 nm; emission at 460 nm, AMC) monitored with a LJL Aquest (Molecular Devices) fluorescent plate reader. In the case of kinetic reads (used in mechanism of action studies), the reaction is not quenched but is read in the plate reader every 3 minutes for approximately 90 minutes. In addition, the mechanism of action studies for Falcipain-2 utilize Z-LR-AMC as the substrate. Product formation is determined from the fluorescence of AMC, measured with a LJL Acquest (Molecular Devices) fluorescent plate reader (excitation at 360 nm; emission at 460 nm).
(§3) Potential inhibitors are evaluated using the quenched read (endpoint) method. Assays are carried out in the presence of variable concentrations of test compound. Reactions are initiated by addition of enzyme and substrate to wells containing inhibitor stamped in 100% DMSO. For endpoint assays, the reaction is quenched with the addition of E64. Dose response data is fit to an IC50 curve with preset fitting tools according to equation 1:
(§4) y=a+(b−a)/(1+(10^X/10^C)^d) (1)
(§5) where y is the response at a particular inhibitor concentration x, a is the minimum response value, b is the maximum response value, c is the IC50, and d is the slope of the IC50 curve. Assuming the compound is a competitive inhibitor, the apparent KI can be calculated from IC50, as shown in equation 2: […]

[2] = test system: Plasmodium falciparum parasite; test: whole cell activity against the Plasmodium falciparum parasite; type: cell-based
Excerpt: Equation 7 describes the apparent KI for competitive compounds and was substituted into equations 5 and 6 to generate the relevant binding constants from the fitting routine. In addition, the initial and final velocities were fit to equation 3 to further define the binding mechanism and potency. A complete discussion of this kinetic treatment has been fully described (Morrison et al., Adv. Enzymol. Relat. Areas Mol. Biol., 1988, 61, 201). 2) Determination of Whole Cell Activity Against the Plasmodium falciparum Parasite Compounds can be evaluated for whole cell activity against the Plasmodium falciparum parasite according to the procedure described in Sijwali S, and Rosenthal P. J., (2004) Proceedings of the National Academy of Sciences of the United States of America (PNAS) 101(13), 4384-4389 (see in particular “Measurement of Parasite Growth rates and Inhibitor Sensitivity” on page 4385); IC50 values can be calculated as described in Singh A. and Rosenthal P. J., (2001) Antimicrobial Agents and Chemotherapy 45(3), 949-951 (see in particular page 950, first column); synchronised parasites can be prepared as described in Divo A. A. et al., (1985) Protozool. 32, 59-64.

[3] = target: T2, Falcipain-2 (Plasmodium falciparum, UniProt Q8I6U4); test: falcipain-2 enzymatic assay (fluorogenic substrate H-D-VLR-AFC, endpoint); type: biochemical; settings: parasitic recombinant enzyme, pH 5.5, quenched after 60 minutes
T2 sequence (Q8I6U4 244-484): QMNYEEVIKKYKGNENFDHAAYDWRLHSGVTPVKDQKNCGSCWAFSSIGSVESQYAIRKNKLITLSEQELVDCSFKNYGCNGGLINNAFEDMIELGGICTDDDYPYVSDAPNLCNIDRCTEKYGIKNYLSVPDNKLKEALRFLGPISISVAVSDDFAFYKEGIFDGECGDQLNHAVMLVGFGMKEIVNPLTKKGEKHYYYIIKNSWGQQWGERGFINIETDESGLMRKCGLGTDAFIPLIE
Protocol: as §1, §2, §3, §4, §5

Row | Compound | IC50 [1] | IC50 [2] | IC50 [3]
1 | CN1CCC(CN2CCN(Cc3ccc(C(=O)NN(CC4CCCC4)c4nc(C#N)nc5c4ncn5C)cc3)CC2)CC1 [Example 2, N′-(2-cyano-9-methyl-9H-purin-6-yl)-N′-(cyclopentylmethyl)-4-({4-[(1-methyl-4-piperidinyl)methyl]-1-piperazinyl}methyl)benzohydrazide trifluoroacetate] | 0.015 to 0.15 µM | 0.015 to 0.15 µM | 0.0025 to 0.015 µM
2 | CN(CCn1cnc2c(N(NC(=O)OC(C)(C)C)C3CCCC3)nc(C#N)nc21)C(C)(C)C [Example 43, 1,1-dimethylethyl 2-(2-cyano-9-{2-[(1,1-dimethylethyl)(methyl)amino]ethyl}-9H-purin-6-yl)-2-cyclopentylhydrazinecarboxylate trifluoroacetate] | 0.015 to 0.15 µM | 0.25 to 0.4 µM | 0.0025 to 0.015 µM
3 | CN1CCN(Cc2ccc(C(=O)NN(c3nc(C#N)nc4c3ncn4C(=O)N3CCN(C)CC3)C3CCCC3)cc2)CC1 [Example 34, N′-{2-cyano-9-[(4-methyl-1-piperazinyl)carbonyl]-9H-purin-6-yl}-N′-cyclopentyl-4-[(4-methyl-1-piperazinyl)methyl]benzohydrazide trifluoroacetate] | 0.015 to 0.15 µM | 0.015 to 0.15 µM | 0.001 to 0.0025 µM
4 | CN(C)CCn1cnc2c(N(CC3CCCC3)NC(=O)OC(C)(C)C)nc(C#N)nc21 [Example 13, 1,1-dimethylethyl 2-{2-cyano-9-[2-(dimethylamino)ethyl]-9H-purin-6-yl}-2-(cyclopentylmethyl)hydrazinecarboxylate trifluoroacetate] | 0.015 to 0.15 µM | 0.015 to 0.15 µM | ≤ 0.001 µM
5 | CN(C)CCn1cnc2c(N(CC3CCCC3)NC(=O)c3ccc(CN4CCN(C)CC4)cc3)nc(C#N)nc21 [Example 14, N′-{2-cyano-9-[2-(dimethylamino)ethyl]-9H-purin-6-yl}-N′-(cyclopentylmethyl)-4-[(4-methyl-1-piperazinyl)methyl]benzohydrazide trifluoroacetate] | 0.015 to 0.15 µM | 0.015 to 0.15 µM | 0.0025 to 0.015 µM
6 | CN(C)CCn1cnc2c(N(NC(=O)c3cccc(N4CCN(C)CC4)c3)C3CCCC3)nc(C#N)nc21 [Example 41, N′-{2-cyano-9-[2-(dimethylamino)ethyl]-9H-purin-6-yl}-N′-cyclopentyl-3-(4-methyl-1-piperazinyl)benzohydrazide bis(trifluoroacetate)] | 0.015 to 0.15 µM | 0.015 to 0.15 µM | 0.001 to 0.0025 µM
7 | CN1CCN(Cc2ccc(-c3cncc(C(=O)NN(c4nc(C#N)nc5c4ncn5C)C4CCCC4)c3)cc2)CC1 [Example 27, N′-(2-Cyano-9-methyl-9H-purin-6-yl)-N′-cyclopentyl-5-{4-[(4-methyl-1-piperazinyl)methyl]phenyl}-3-pyridinecarbohydrazide trifluoroacetate] | 0.015 to 0.15 µM | 0.015 to 0.15 µM | ≤ 0.001 µM
8 | CN1CCN(c2cccc(C(=O)NN(c3nc(C#N)nc4c3ncn4C)C3CCCC3)c2)CC1 [Example 33, N′-(2-cyano-9-methyl-9H-purin-6-yl)-N′-cyclopentyl-3-(4-methyl-1-piperazinyl)benzohydrazide trifluoroacetate] | 0.015 to 0.15 µM | 0.015 to 0.15 µM | 0.001 to 0.0025 µM
9 | CN(C)CCn1cnc2c(N(NC(=O)c3cccc(-c4ccc(CN5CCN(C)CC5)cc4)n3)C3CCCC3)nc(C#N)nc21 [Example 42, N′-{2-cyano-9-[2-(dimethylamino)ethyl]-9H-purin-6-yl}-N′-cyclopentyl-6-{4-[(4-methyl-1-piperazinyl)methyl]phenyl}-2-pyridinecarbohydrazide trifluoroacetate] | 0.015 to 0.15 µM | 0.015 to 0.15 µM | 0.0025 to 0.015 µM
10 | CN(C)CCCn1cnc2c(N(NC(=O)c3ccc(CN4CCN(C)CC4)cc3)C3CCCC3)nc(C#N)nc21 [Example 17, N′-{2-cyano-9-[3-(dimethylamino)propyl]-9H-purin-6-yl}-N′-cyclo pentyl-4-[(4-methyl-1-piperazinyl)methyl]benzohydrazide trifluoroacetate] | 0.25 to 0.4 µM | 0.015 to 0.15 µM | 0.001 to 0.0025 µM
11 | CN1CCN(c2cccc(C(=O)NN(c3nc(C#N)nc4c3ncn4C)C3CCCCC3)c2)CC1 [Example 36, N′-(2-cyano-9-methyl-9H-purin-6-yl)-N′-cyclohexyl-3-(4-methyl-1-piperazinyl)benzohydrazide trifluoroacetate] | 0.015 to 0.15 µM | 0.015 to 0.15 µM | 0.0025 to 0.015 µM
12 | CN(C)C1CCN(C(=O)n2cnc3c(N(NC(=O)OC(C)(C)C)C4CCCC4)nc(C#N)nc32)CC1 [Example 48, 1,1-dimethylethyl 2-(2-cyano-9-{[4-(dimethylamino)-1-piperidinyl]carbonyl}-9H-purin-6-yl)-2-cyclopentylhydrazinecarboxylate trifluoroacetate] | 0.015 to 0.15 µM | 0.15 to 0.25 µM | 0.001 to 0.0025 µM
13 | CN1CCN(C(=O)C2CCN(Cc3ccc(C(=O)NN(c4nc(C#N)nc5c4ncn5C)C4CCCC4)cc3)CC2)CC1 [Example 6, N′-(2-cyano-9-methyl-9H-purin-6-yl)-N′-cyclopentyl-4-({4-[(4-methyl-1-piperazinyl)carbonyl]-1-piperidinyl}methyl)benzohydrazide trifluoroacetate] | 0.15 to 0.25 µM | 0.015 to 0.15 µM | 0.0025 to 0.015 µM

Reference: patent US20100105652A1, “PURINES AS CYSTEINE PROTEASE INHIBITORS” (Glaxo Group Limited, priority 2007, published 2010)
